Ends that are not written are not given here.
What was measured:
GSK-3 beta [1] = experiment: In ovo tau phosphorylation assay: GSK-3 beta and Xaxin constructs co-expressed in Xenopus oocytes; type: cell-based; settings: construct co-expressed with GSK-3 beta in Xenopus oocytes; tau microinjected; PHF-1 immunoblot
Description: Stage VI Xenopus oocytes were isolated by collagenase treatment (Smith et al., 1994, Meth. Cell Biol. 36:45-58) and were injected with mRNA prepared by in vitro transcription (mMessage Machine™; Ambion, Austin, Tex.). 10 nanoliters of mRNA (containing 1-2 nanograms per nanoliter) was injected for each construct (unless otherwise specified), and the injected oocytes were incubated for 16 hours at 18° C. To analyze the effects of Xaxin constructs on dorsal-ventral pattern formation, Xenopus embryos were injected with 10 nanoliters of mRNA (0.1-0.2 nanogram per nanoliter) into one dorsal or ventral cell of a 4 cell embryo and dorsal axes were assessed at the tadpole stage. For Xaxin co-immunoprecipitation, fertilized eggs were injected with 10 nanoliters of Xaxin tagged with Myc, with hemagglutinin, or with both Myc and hemagglutinin (1 nanogram per nanoliter) and harvested at the blastula stage (stage 8).
In ovo phosphorylation of tau by GSK-3 beta was performed by microinjection of tau protein into oocytes expressing GSK-3 beta and Xaxin constructs. After 90 minutes, oocytes were homogenized and tau phosphorylation was analyzed in western blots using phospho-specific antibodies as described (Hedgepeth et al., 1997, Develop. Biol. 185:82-91). In vitro assays for GSK-3 beta activity were performed as described (Klein et al., 1996, Proc. Natl. Acad. Sci. USA 93:8455-8459). Recombinant GID-2/his protein (described below) was purified by affinity chromatography and added to in vitro assays at selected concentrations. […]
GSK-3 beta was expressed in oocytes together with Myc-tagged full length Xaxin or with the amino-terminal (amino acid residues 63-288), GID-1 (amino acid residues 277-545), or carboxyl-terminal (amino acid residues 429-713) fragments of Xaxin, as depicted in FIG. 1A. Purified tau protein was then microinjected into the oocytes, and phosphorylation of tau was measured by immunoblotting using antibody PHF-1 or with antibodies that detect all (i.e. phosphorylated and non-phosphorylated) forms of tau. […]

GSK-3 beta [2] = experiment: Co-immunoprecipitation of GSK-3 beta with Myc-tagged Xaxin constructs in Xenopus oocytes; type: binding; settings: Myc-tagged construct co-expressed with GSK-3 beta in Xenopus oocytes; anti-Myc IP, anti-GSK-3 beta blot
[3] = tested on: LEF-1 dependent transcription (wnt signaling); experiment: LEF-luciferase reporter of wnt signaling in 293T cells; type: cell-based; settings: at 37°
Description: LEF-1 (also designated tcf) is a DNA-binding protein that also binds with beta-catenin. The beta-catenin/LEF-1 complex is known to activate transcription of wnt target genes. A genetic construct was made which comprised this LEF-1-binding promoter operably linked with a luciferase gene, for use as a reporter of wnt signaling.
Single plasmids encoding individual GID fragments were transfected into 293T cells, together with the LEF-luciferase reporter, and luciferase activity was measured after 24 hours. GID fragments induced up to 100- to 250-fold activation of LEF-luciferase (normalized to activity from the mutated LEF-reporter control, which was activated less than 2-fold).

| Substance | GSK-3 beta-mediated tau phosphorylation (GSK-3 beta activity) (GSK-3 beta [1]) | binding with GSK-3 beta (co-immunoprecipitation) (GSK-3 beta [2]) | reduction of activity in LEF-luciferase assay compared to wild-type [3] |
| --- | --- | --- | --- |
| GID-5: Myc-tagged fragment, Xaxin amino acid residues 380-429 (DIHVDPEKFAAELISRLEGVLRDREAEQKLEERLKRVRAEEEGDDGDVSS; also: Myc-tagged fragment) | inhibited | bound |  |
| GID-3: Myc-tagged fragment, Xaxin amino acid residues 320-375 (DSEQQSMSSDADTMSLTDSSVDGIPPYRLRKHYRREMQESANANGRGPLPHIPRTY; also: Myc-tagged fragment) | no effect | did not bind |  |
| GID-6: Myc-tagged fragment, Xaxin amino acid residues 380-404 (SEQ ID NO: 1) (DIHVDPEKFAAELISRLEGVLRDRE; also: Myc tag) | inhibited | bound |  |
| GID5-6FY: GID mutant in which phenylalanine-388 is replaced with a tyrosine residue (DIHVDPEKYAAELISRLEGVLRDRE) |  |  | approximately 10 fold |
